For 20 compounds, IC50 results are on record in patent publication US10660877B2 (BRISTOL-MYERS SQUIBB COMPANY, priority 2016, dated 2020).

Molecules are shown by their SMILES. Read-outs that look alike come from different tables or passages of the source. Where only a bound is given, the exact number is not on record here.

For assay [1], the target named is human TLR7 (Homo sapiens (Human), UniProt Q9NYK1). Nature of the assay: TLR7 inhibition reporter assay (HEK-Blue cells, SEAP reporter, gardiquimod stimulation). It counts as cell-based. (In a reporter assay the amount or activity of a reporter protein is the signal.)
The target in assay [2] is human TLR8 (Homo sapiens (Human), UniProt Q9NR97). Nature of the assay: TLR8 inhibition reporter assay (HEK-Blue cells, SEAP reporter, R848 stimulation).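 Also: compounds tested from 0.05 nM to 50 µM, 22 h at 37 °C, SEAP measured with HEK-Blue Detection, inhibition relative to agonist plus DMSO versus a known inhibitor.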
In assay [3] the target is human TLR9 (Homo sapiens (Human), UniProt Q9NR96). Nature of the assay: TLR9 inhibition reporter assay (HEK-Blue cells, SEAP reporter, ODN2006 stimulation).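 Also: compounds tested over 0.05 nM to 50 µM, 22 h incubation, inhibition taken as SEAP signal drop from agonist plus DMSO wells toward a known inhibitor control.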
Where [4] appears, read: HEK-Blue cells overexpressing human TLR7, gardiquimod 7.5 μM.
[5] abbreviates: read-out: TLR8 IC50, HEK-Blue cells overexpressing human TLR8, R848 15.9 μM.
Setting [6] is: read-out: TLR9 IC50, HEK-Blue cells overexpressing human TLR9, ODN2006 5 nM.

Chain of human TLR8 (Q9NR97 27-1041): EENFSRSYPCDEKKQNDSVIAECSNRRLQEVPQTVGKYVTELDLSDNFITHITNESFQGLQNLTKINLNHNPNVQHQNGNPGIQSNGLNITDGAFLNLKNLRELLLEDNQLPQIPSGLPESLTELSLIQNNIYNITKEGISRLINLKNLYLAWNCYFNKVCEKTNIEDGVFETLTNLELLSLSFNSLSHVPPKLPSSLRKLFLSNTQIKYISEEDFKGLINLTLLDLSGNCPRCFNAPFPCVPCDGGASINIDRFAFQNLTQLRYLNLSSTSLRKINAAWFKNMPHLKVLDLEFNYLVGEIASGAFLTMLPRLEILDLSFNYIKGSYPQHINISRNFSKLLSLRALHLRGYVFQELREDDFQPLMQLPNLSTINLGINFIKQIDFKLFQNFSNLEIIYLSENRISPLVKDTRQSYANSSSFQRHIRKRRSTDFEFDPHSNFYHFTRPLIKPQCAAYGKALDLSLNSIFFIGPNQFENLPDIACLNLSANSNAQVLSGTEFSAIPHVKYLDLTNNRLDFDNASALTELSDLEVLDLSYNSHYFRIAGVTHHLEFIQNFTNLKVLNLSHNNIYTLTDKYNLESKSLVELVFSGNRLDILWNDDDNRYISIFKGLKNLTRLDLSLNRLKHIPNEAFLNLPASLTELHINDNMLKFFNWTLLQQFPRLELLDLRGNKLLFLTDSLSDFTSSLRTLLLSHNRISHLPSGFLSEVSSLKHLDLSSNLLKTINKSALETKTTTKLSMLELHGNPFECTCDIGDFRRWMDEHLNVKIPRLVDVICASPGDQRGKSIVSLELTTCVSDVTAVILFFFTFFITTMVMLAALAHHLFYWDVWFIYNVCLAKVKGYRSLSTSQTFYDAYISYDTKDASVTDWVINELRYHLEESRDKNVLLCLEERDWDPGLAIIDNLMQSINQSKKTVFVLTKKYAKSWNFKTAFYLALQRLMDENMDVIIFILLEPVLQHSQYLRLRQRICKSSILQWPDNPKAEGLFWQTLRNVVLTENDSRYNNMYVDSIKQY
Chain of human TLR9 (Q9NR96 26-1032): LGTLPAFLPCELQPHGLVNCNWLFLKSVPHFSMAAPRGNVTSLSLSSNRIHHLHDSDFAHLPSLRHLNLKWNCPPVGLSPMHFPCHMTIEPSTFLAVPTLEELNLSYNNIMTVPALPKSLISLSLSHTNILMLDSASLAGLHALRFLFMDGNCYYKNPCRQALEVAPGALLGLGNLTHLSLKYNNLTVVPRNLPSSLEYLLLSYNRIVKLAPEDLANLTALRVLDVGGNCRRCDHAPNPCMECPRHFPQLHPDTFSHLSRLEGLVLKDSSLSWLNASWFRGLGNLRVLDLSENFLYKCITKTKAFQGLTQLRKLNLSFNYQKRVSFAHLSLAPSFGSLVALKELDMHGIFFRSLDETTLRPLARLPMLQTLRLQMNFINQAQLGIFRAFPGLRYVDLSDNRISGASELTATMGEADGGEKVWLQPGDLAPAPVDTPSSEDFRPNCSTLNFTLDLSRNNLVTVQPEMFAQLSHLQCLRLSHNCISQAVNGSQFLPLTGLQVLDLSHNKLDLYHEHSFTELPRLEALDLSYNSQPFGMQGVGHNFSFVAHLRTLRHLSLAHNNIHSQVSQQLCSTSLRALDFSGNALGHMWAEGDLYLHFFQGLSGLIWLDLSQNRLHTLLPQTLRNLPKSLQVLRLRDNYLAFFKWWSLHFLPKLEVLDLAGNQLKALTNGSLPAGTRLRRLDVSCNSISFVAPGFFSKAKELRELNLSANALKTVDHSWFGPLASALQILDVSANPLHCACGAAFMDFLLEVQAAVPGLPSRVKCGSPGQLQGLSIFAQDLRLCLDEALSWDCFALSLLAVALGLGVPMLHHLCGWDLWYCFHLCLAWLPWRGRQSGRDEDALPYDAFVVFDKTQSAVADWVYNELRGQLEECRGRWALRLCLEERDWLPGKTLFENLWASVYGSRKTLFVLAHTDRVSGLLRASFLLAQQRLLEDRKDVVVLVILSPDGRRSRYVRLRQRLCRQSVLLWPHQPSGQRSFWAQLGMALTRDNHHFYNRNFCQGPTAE
Chain of human TLR7 (Q9NYK1 27-1049): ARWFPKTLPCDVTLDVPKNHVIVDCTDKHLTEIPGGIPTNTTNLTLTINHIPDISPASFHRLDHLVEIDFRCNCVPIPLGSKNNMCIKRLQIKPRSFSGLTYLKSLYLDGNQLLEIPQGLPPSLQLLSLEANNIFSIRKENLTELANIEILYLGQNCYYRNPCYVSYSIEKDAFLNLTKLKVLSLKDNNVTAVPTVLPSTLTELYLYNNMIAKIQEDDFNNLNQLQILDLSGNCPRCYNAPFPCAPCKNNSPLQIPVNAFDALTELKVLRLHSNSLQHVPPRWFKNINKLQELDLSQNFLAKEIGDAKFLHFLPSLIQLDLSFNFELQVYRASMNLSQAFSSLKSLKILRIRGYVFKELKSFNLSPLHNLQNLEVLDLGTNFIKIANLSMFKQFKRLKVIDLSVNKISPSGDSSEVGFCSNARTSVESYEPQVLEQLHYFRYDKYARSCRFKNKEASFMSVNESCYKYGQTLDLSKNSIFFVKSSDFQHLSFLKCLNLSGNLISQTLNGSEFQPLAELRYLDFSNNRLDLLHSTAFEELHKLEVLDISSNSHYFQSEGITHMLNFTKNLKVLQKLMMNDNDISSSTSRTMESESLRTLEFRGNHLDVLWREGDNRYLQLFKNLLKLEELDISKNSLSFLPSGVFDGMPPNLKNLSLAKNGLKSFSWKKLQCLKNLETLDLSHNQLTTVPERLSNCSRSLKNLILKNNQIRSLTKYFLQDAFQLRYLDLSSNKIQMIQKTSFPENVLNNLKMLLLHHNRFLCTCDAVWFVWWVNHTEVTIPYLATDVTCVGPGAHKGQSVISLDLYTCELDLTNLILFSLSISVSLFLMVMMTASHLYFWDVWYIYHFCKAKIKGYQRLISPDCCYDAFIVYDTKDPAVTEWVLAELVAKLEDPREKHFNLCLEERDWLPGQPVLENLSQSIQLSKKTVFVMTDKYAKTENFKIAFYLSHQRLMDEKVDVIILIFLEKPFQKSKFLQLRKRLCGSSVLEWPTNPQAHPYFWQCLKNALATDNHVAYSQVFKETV

Broadly, the IC50 is the midpoint of a concentration-inhibition curve. In the case of `Cc1cc(-c2[nH]c3ccc(C4CCN(C(=O)C5CC(=O)N(C)C5)CC4)cc3c2C(C)C)ccn1` (stereo not drawn) [Example 566, 4-(4-(3-isopropyl-2-(2-methylpyridin-4-yl)-1H-indol-5-yl)piperidine-1-carbonyl)-1-methylpyrrolidin-2-one], the concentration for half-maximal inhibition (IC50) in assay [1] (setting [4]) is 78.8 nM; in assay [2] (setting [5]) it was 118 nM; in assay [3] (setting [6]), greater than 50000 nM.
On to `Cc1cc(-c2[nH]c3ccc(C4CCN(C[C@@H]5CCNC5)CC4)cc3c2C(C)C)ccn1` [Example 738, (R)-3-isopropyl-2-(2-methylpyridin-4-yl)-5-(1-(pyrrolidin-3-ylmethyl)piperidin-4-yl)-1H-indole], for which the results for the IC50 in assay [1] (setting [4]), in assay [2] (setting [5]) and in assay [3] (setting [6]) were 11.2 nM, 2.5 nM and 282 nM, respectively.
In the case of `CCN(CCO)CC(=O)N1CCC(c2ccc3[nH]c(-c4cc(C)nc(C)c4)c(C(C)C)c3c2)CC1` [Example 397, 1-(4-(2-(2,6-dimethylpyridin-4-yl)-3-isopropyl-1H-indol-5-yl)piperidin-1-yl)-2-(ethyl(2-hydroxyethyl)amino)ethan-1-one], the values for the 50% inhibitory concentration (IC50) in assay [1] (setting [4]), in assay [2] (setting [5]) and in assay [3] (setting [6]) were 2.2 nM, 18.6 nM and 705 nM, respectively.
Regarding `CCc1c(-c2ccnc(N)c2)[nH]c2ccc([C@@H]3CCNC[C@@H]3F)cc12` [491-A], the IC50 in assay [1] (setting [4]) came to 156 nM; in assay [2] (setting [5]), 110 nM; in assay [3] (setting [6]), 354 nM.
For `Cc1cc(-c2[nH]c3ccc(C4CCN(C(=O)CN(C)C5COC5)CC4)cc3c2C(C)C)c(F)cn1` [Example 678, 1-(4-(2-(5-fluoro-2-methylpyridin-4-yl)-3-isopropyl-1H-indol-5-yl)piperidin-1-yl)-2-(methyl(oxetan-3-yl)amino)ethan-1-one], in that order: 12.3 nM, 30.6 nM and greater than 50000 nM.
The matching figures for `CCc1c(-c2ccnc(C)c2)[nH]c2ccc(C3CCN(C(=O)c4ccnc(F)c4)CC3)cc12` [Example 592, (4-(3-ethyl-2-(2-methylpyridin-4-yl)-1H-indol-5-yl)piperidin-1-yl)(2-fluoropyridin-4-yl)methanone]: 276 nM, 235 nM and 17100 nM.
As to `Cc1cc(-c2[nH]c3ccc(C4CCN(C5CC(C)OC(C)C5)CC4)cc3c2C(C)C)ccn1` (stereo not drawn) [Example 713, 5-(1-(2,6-dimethyltetrahydro-2H-pyran-4-yl)piperidin-4-yl)-3-isopropyl-2-(2-methylpyridin-4-yl)-1H-indole], the IC50 is 3.5 nM in assay [1] (setting [4]), 14.8 nM in assay [2] (setting [5]) and 550 nM in assay [3] (setting [6]).
For `Cc1cc(-c2[nH]c3ccc(C4CCN(CC(=O)NCCO)CC4)cc3c2C(C)C)cc(C)n1` [Example 222, 2-(4-(2-(2,6-dimethylpyridin-4-yl)-3-isopropyl-1H-indol-5-yl)piperidin-1-yl)-N-(2-hydroxyethyl)acetamide], in that order: 2.7 nM, 15.9 nM and 2240 nM.
In the case of `COC1CN(C(=O)CN2CCC(c3ccc4[nH]c(-c5cc(C)nc(C)c5)c(C(C)C)c4c3)CC2)C1` [Example 226, 2-(4-(2-(2,6-dimethylpyridin-4-yl)-3-isopropyl-1H-indol-5-yl)piperidin-1-yl)-1-(3-methoxyazetidin-1-yl)ethan-1-one], the IC50 stood at 5.4 nM in assay [1] (setting [4]), 12.4 nM in assay [2] (setting [5]) and 759 nM in assay [3] (setting [6]).
For `Cc1cc(-c2[nH]c3ccc(C4CCN(C(=O)CN(C)CCF)CC4)cc3c2C(C)C)cc(C)n1` [Example 421, 1-(4-(2-(2,6-dimethylpyridin-4-yl)-3-isopropyl-1H-indol-5-yl)piperidin-1-yl)-2-((2-fluoroethyl)(methyl)amino)ethan-1-one], in that order: 5.4 nM, 25.9 nM and 656 nM.
Consider `Cc1cc(-c2[nH]c3ccc(C4CCN(CC(O)CO)CC4)cc3c2C(C)C)cc(C)n1` (stereo not drawn) [Example 854, 3-(4-(2-(2,6-dimethylpyridin-4-yl)-3-isopropyl-1H-indol-5-yl)piperidin-1-yl) propane-1,2-diol], for which the IC50 was determined as 1 nM in assay [1] (HEK-Blue cells, gardiquimod 7.5 μM); 1.8 nM in assay [2] (read-out: TLR8 IC50, HEK-Blue cells, R848 15.9 μM); 159 nM in assay [3] (read-out: TLR9 IC50, HEK-Blue cells, ODN2006 5 nM).
On to `Cc1cc(-c2[nH]c3ccc(C4CCN(Cc5ccn(C)n5)CC4)cc3c2C(C)C)c(C)cn1` [Example 689, 2-(2,5-dimethylpyridin-4-yl)-3-isopropyl-5-(1-((1-methyl-1H-pyrazol-3-yl)methyl)piperidin-4-yl)-1H-indole], for which the IC50 is 23.2 nM in assay [1] (setting [4]), 0.8 nM in assay [2] (setting [5]) and 1440 nM in assay [3] (setting [6]).
Turning to `CCc1c(-c2ccnc(-n3ccnc3)c2)[nH]c2ccc(C3CCNCC3)cc12` [Example 67, 2-(2-(1H-imidazol-1-yl)pyridin-4-yl)-3-ethyl-5-(piperidin-4-yl)-1H-indole], the IC50 worked out at 1010 nM in assay [1] (setting [4]), 9 nM in assay [2] (setting [5]) and 396 nM in assay [3] (setting [6]).
Turning to `CCC(C)CN(CCO)C(=O)CN1CCC(c2ccc3[nH]c(-c4cc(C)nc(C)c4)c(C(C)C)c3c2)CC1` (stereo not drawn) [Example 297, 2-(4-(2-(2,6-dimethylpyridin-4-yl)-3-isopropyl-1H-indol-5-yl)piperidin-1-yl)-N-(2-hydroxyethyl)-N-(2-methylbutyl)acetamide], the IC50 in assay [1] (setting [4]) was 13.4 nM; in assay [2] (setting [5]) it was 43.6 nM; in assay [3] (setting [6]), 710 nM.
The matching figures for `CNCC(=O)N1CCC(c2ccc3[nH]c(-c4cc(C)nc(C)c4)c(CC(F)F)c3c2)CC1` [Example 535, 1-(4-(3-(2,2-difluoroethyl)-2-(2,6-dimethylpyridin-4-yl)-1H-indol-5-yl)piperidin-1-yl)-2-(methylamino)ethan-1-one]: 10 nM, 86.5 nM and 258 nM.
Consider `CCc1c(-c2ccnc(OC)c2)[nH]c2ccc(C3CCN(C4CCN(CC)CC4)CC3)cc12` [Example 792, 3-ethyl-5-(1′-ethyl-[1,4′-bipiperidin]-4-yl)-2-(2-methoxypyridin-4-yl)-1H-indole], for which the IC50 came out at 304 nM in assay [1] (setting [4]), 84.9 nM in assay [2] (setting [5]) and 686 nM in assay [3] (setting [6]).
The matching figures for `CC(C)c1c(-c2ccncc2F)[nH]c2ccc(C3CCNCC3)cc12` [Example 7, 2-(3-fluoropyridin-4-yl)-3-isopropyl-5-(piperidin-4-yl)-1H-indole]: 590 nM, 195 nM and 3540 nM.
Consider `Cc1cc(-c2[nH]c3ccc(C4CCN(S(=O)(=O)c5cn(C)c(C)n5)CC4)cc3c2C(C)C)ccn1` [Example 553, 5-(1-((1,2-dimethyl-1H-imidazol-4-yl)sulfonyl)piperidin-4-yl)-3-isopropyl-2-(2-methylpyridin-4-yl)-1H-indole], for which the concentration for half-maximal inhibition (IC50) in assay [1] (setting [4]) is 74.2 nM; in assay [2] (setting [5]), 84.3 nM; in assay [3] (setting [6]), 31600 nM.
`Cc1cc(-c2[nH]c3ccc(C4CCN(C(=O)C5CCN(C)C(=O)C5)CC4)cc3c2C(C)C)ccn1` (stereo not drawn) [Example 607, 4-(4-(3-isopropyl-2-(2-methylpyridin-4-yl)-1H-indol-5-yl)piperidine-1-carbonyl)-1-methylpiperidin-2-one]: the IC50 in assay [1] (setting [4]) was 94 nM; in assay [2] (setting [5]), 186 nM; in assay [3] (setting [6]) it was greater than 50000 nM.
As to `Cc1cc(-c2[nH]c3ccc(C4CCN(C(=O)CCO)CC4)cc3c2C(C)C)cc(C)n1` [Example 117, 1-(4-(2-(2,6-dimethylpyridin-4-yl)-3-isopropyl-1H-indol-5-yl)piperidin-1-yl)-3-hydroxypropan-1-one], the IC50 in assay [1] (setting [4]) is 6.6 nM; in assay [2] (setting [5]) it was 116 nM; in assay [3] (setting [6]), greater than 50000 nM.
